Results taken from patent publication US20090203577A1 (EXELIXIS, INC., priority 2005, published 2009).
Values after ≈ are worked out from the molar mass of the structure shown. Where two headings read alike, the source gives them in different places.

Columns and labels:
[1] = physchem; conditions: pH 7.4, aqueous buffer, kinetic from dmso stock
Protocol: The kinetic solubility of test compounds in buffer was evaluated using a 96 well filtration plate format. A 500 μM assay solution in PBS, pH7.4 (or other assay buffer, as needed) was generated form a DMSO stock solution (up to 10 mM). Samples were transferred to a 96 Millipore MultiScreen HTS 96-well Filter plate (Cat# MSSLBPC10) mixed by shaking for 1.5 hours and processed by filtration prior to quantitation by HPLC-UV. Amiodarone and testosterone were used as reference controls.

[2] = biological target: T1, human farnesoid X receptor (Homo sapiens, UniProt Q96RI1); experiment: FXR in vitro assays (farnesoid X receptor/ECREx7 co-transfection assay, TR-FRET assay), Table I; assay type: cell-based; conditions: for Emax: read-out: % Efficacy
T1 construct: CMX-farnesoid X receptor (full length human farnesoid X receptor); expressed in transfected cells; host or cells: CV-1 African Green Monkey Kidney cells
T1 sequence (Q96RI1 1-472 isoform Q96RI1-2): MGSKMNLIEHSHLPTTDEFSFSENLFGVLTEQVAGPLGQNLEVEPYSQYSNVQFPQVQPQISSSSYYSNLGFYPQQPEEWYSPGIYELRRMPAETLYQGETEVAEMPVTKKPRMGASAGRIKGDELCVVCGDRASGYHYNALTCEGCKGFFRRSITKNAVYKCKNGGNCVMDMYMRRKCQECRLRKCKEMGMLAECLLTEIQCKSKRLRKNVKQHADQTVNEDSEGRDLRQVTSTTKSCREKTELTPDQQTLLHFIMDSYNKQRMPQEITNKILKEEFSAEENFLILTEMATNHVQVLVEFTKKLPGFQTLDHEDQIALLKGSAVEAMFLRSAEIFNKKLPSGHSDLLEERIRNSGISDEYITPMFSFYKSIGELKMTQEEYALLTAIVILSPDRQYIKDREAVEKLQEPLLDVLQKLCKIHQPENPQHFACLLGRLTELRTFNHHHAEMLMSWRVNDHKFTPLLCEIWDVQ
T1 sequence (P19793 1-462 partner): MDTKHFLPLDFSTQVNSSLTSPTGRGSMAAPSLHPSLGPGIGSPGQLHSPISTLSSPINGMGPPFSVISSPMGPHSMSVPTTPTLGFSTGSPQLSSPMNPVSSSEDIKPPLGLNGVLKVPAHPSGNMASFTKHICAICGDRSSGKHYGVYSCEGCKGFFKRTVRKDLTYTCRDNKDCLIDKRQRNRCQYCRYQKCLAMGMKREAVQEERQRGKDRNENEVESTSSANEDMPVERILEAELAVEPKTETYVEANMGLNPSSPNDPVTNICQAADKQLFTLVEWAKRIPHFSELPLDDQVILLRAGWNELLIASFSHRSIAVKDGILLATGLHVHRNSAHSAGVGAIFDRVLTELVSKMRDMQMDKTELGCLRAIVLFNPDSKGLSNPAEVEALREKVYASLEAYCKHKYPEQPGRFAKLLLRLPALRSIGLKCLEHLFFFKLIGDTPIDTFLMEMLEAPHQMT
How it was run: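 CV-1 monkey kidney cells transfected for an FXR/ECREx7 luciferase co-transfection reporter; luciferase read 18-20 h later in lysates. 8-point dose-response at ½-log spacing, 4 wells per point; EC50/IC50 from four-parameter Hill fit, averaged over at least 3 independent experiments.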

[3] = agonist activity, one or more of the in vitro assays, read-out: EC50

SMILES: CC(C)OC(=O)C1=CN(C(=O)N2CCC[C@H](CN3CCOCC3)C2)CC(C)(C)c2c1[nH]c1ccccc21 [Example 57, 1-methylethyl 1,1-dimethyl-3-{[(3R)-3-(morpholin-4-ylmethyl)piperidin-1-yl]carbonyl}-1,2,3,6-tetrahydroazepino [4,5-b]indole-5-carboxylate]
- solubility kinetic at 1.5 h [1]: > 10 µM
- EC50 [2, 3]: 1000 to 10000 nM
- Emax [2]: > 100%

SMILES: CC(C)OC(=O)C1=CN(C(=O)N2CCC[C@H](CN3CCCCC3)C2)CC(C)(C)c2c1[nH]c1ccccc21 [Example 58]
- solubility kinetic at 1.5 h [1]: > 10 µM
- EC50 [2, 3]: 1000 to 10000 nM
- Emax [2]: 80 to 100%

SMILES: CC(C)OC(=O)C1=CN(C(=O)N2CCC[C@@H](N3CCCCC3)C2)CC(C)(C)c2c1[nH]c1ccccc21 [Example 60, 1-methylethyl 3-[(3′R)-1,3′-bipiperidin-1′-ylcarbonyl]-1,1-dimethyl-1,2,3,6-tetrahydroazepino[4,5-b]indole-5-carboxylate]
- solubility kinetic at 1.5 h [1]: > 10 µM
- EC50 [2, 3]: 1000 to 10000 nM
- Emax [2]: 60 to 80%

SMILES: CC(C)OC(=O)C1=CN(C(=O)c2ccccc2C(F)(F)F)CC(C)(C)c2c1[nH]c1ccccc21 [Example 64, 1-methylethyl 1,1-dimethyl-3-{[2-(trifluoromethyl)phenyl]-carbonyl}-1,2,3,6-tetrahydroazepino[4,5-b]indole-5-carboxylate]
- solubility kinetic at 1.5 h [1]: 1 to 10 µM (≈ 0.47 to 4.7 µg/mL)
- EC50 [2, 3]: 10 to 100 nM
- Emax [2]: > 100%

SMILES: CC(C)OC(=O)C1=CN(C(=O)c2ccccc2Br)CC(C)(C)c2c1[nH]c1ccccc21 [Example 67, 1-methylethyl 3-[(2-bromophenyl)carbonyl]-1,1-dimethyl-1,2,3,6-tetrahydroazepino[4,5-b]indole-5-carboxylate]
- solubility kinetic at 1.5 h [1]: 1 to 10 µM (≈ 0.481 to 4.81 µg/mL)
- EC50 [2, 3]: 10 to 100 nM
- Emax [2]: > 100%

SMILES: CC(C)OC(=O)C1=CN(C(=O)c2ccccc2OC(F)(F)F)CC(C)(C)c2c1[nH]c1ccccc21 [Example 70, 1-methylethyl 1,1-dimethyl-3-({2-[(trifluoromethyl)oxy]phenyl}carbonyl)-1,2,3,6-tetrahydroazepino[4,5-b]indole-5-carboxylate]
- solubility kinetic at 1.5 h [1]: 1 to 10 µM (≈ 0.486 to 4.86 µg/mL)
- EC50 [2, 3]: 100 to 1000 nM
- Emax [2]: > 100%

SMILES: CC(C)OC(=O)C1=CN(C(=O)c2cccc(F)c2)CC(C)(C)c2c1[nH]c1ccccc21 [Example 72, 1-methylethyl 3-[(3-fluorophenyl)carbonyl]-1,1-dimethyl-1,2,3,6-tetrahydroazepino[4,5-b]indole-5-carboxylate]
- solubility kinetic at 1.5 h [1]: 1 to 10 µM (≈ 0.42 to 4.2 µg/mL)
- EC50 [2, 3]: 1 to 10 nM
- Emax [2]: > 100%

SMILES: CC(C)OC(=O)C1=CN(C(=O)c2ccc3c(c2)OCO3)CC(C)(C)c2c1[nH]c1ccccc21 [Example 80, 1-methylethyl 3-(1,3-benzodioxol-5-ylcarbonyl)-1,1-dimethyl-1,2,3,6-tetrahydroazepino[4,5-b]indole-5-carboxylate]
- solubility kinetic at 1.5 h [1]: 1 to 10 µM (≈ 0.447 to 4.47 µg/mL)
- EC50 [2, 3]: 10 to 100 nM
- Emax [2]: > 100%

SMILES: CC(C)OC(=O)C1=CN(C(=O)c2cccc(Cl)c2)CC(C)(C)c2c1[nH]c1ccccc21 [Example 81, 1-methylethyl 3-[(3-chlorophenyl)carbonyl]-1,1-dimethyl-1,2,3,6-tetrahydroazepino[4,5-b]indole-5-carboxylate]
- solubility kinetic at 1.5 h [1]: 1 to 10 µM (≈ 0.437 to 4.37 µg/mL)
- EC50 [2, 3]: 10 to 100 nM
- Emax [2]: > 100%

SMILES: CC(C)OC(=O)C1=CN(C(=O)c2ccc(Cl)cc2)CC(C)(C)c2c1[nH]c1ccccc21 [Example 82, 1-methylethyl 3[(4-chlorophenyl)carbonyl]-1,1-dimethyl-1,2,3,6-tetrahydroazepino[4,5-b]indole-5-carboxylate]
- solubility kinetic at 1.5 h [1]: 1 to 10 µM (≈ 0.437 to 4.37 µg/mL)
- EC50 [2, 3]: 10 to 100 nM
- Emax [2]: > 100%

SMILES: CC(C)OC(=O)C1=CN(C(=O)c2ccc(F)c(C(F)(F)F)c2)CC(C)(C)c2c1[nH]c1ccccc21 [Example 83, 1-methylethyl 3-{[4-fluoro-3-(trifluoromethyl)phenyl]car-bonyl}-1,1-dimethyl-1,2,3,6-tetrahydroazepino[4,5-b]indole-5-carboxylate]
- solubility kinetic at 1.5 h [1]: 1 to 10 µM (≈ 0.488 to 4.88 µg/mL)
- EC50 [2, 3]: 10 to 100 nM
- Emax [2]: > 100%

SMILES: Cc1cccc(C(=O)N2C=C(C(=O)OC(C)C)c3[nH]c4ccccc4c3C(C)(C)C2)c1 [Example 86, 1-methylethyl 1,1-dimethyl-3-[(3-methylphenyl)carbonyl]-1,2,3,6-tetrahydroazepino[4,5-b]indole-5-carboxylate]
- solubility kinetic at 1.5 h [1]: 1 to 10 µM (≈ 0.417 to 4.17 µg/mL)
- EC50 [2, 3]: 1 to 10 nM
- Emax [2]: > 100%

SMILES: CC(C)NC(=O)C1CN(C(=O)c2ccc(F)c(F)c2)CC(C)(C)c2c1[nH]c1ccccc21 (stereo not drawn) [Example 90, 3-[(3,4-difluorophenyl)carbonyl]-1,1-dimethyl-N-(1-methylethyl)-1,2,3,4,5,6-hexahydroazepino[4,5-b]indole-5-carboxamide]
- solubility kinetic at 1.5 h [1]: > 10 µM
- EC50 [2, 3]: 1000 to 10000 nM
- Emax [2]: > 100%

SMILES: CC(C)OC(=O)C1=CN(C(=O)c2ccc(F)c(F)c2)CC(C)(C)c2c1[nH]c1cc(OC(=O)NCCN(C)C)ccc21 [Example 93, 1-methylethyl 3-[(3,4-difluorophenyl)carbonyl]-8-[({[2-(dimethylamino)ethyl]amino}carbonyl)oxy]-1,1-dimethyl-1,2,3,6-tetrahydroazepino[4,5-b]indole-5-carboxylate]
- solubility kinetic at 1.5 h [1]: > 10 µM
- EC50 [2]: 10 to 100 nM
- Emax [2]: > 100%

SMILES: CC(C)OC(=O)C1=CN(C(=O)c2ccc(F)c(F)c2)CC(C)(C)c2c1[nH]c1cc(OC(=O)OC(C)(C)C)ccc21 [Example 96, 1-methylethyl 3-[(3,4-difluorophenyl)carbonyl]-8-({[(1,1-dimethylethyl)oxy]carbonyl}oxy)-1,1-dimethyl-1,2,3,6-tetrahydroazepino[4,5-b]indole-5-carboxylate]
- solubility kinetic at 1.5 h [1]: 1 to 10 µM (≈ 0.555 to 5.55 µg/mL)
- EC50 [2, 3]: 10 to 100 nM
- Emax [2]: > 100%

SMILES: CC(C)OC(=O)C1=CN(C(=O)c2cccc(OCc3ccccc3)c2)CC(C)(C)c2c1[nH]c1ccccc21 [Example 127, 1-methylethyl 1,1-dimethyl-3-({3-[(phenylmethyl)oxy]phenyl}carbonyl)-1,2,3,6-tetrahydroazepino[4,5-b]indole-5-carboxylate]
- solubility kinetic at 1.5 h [1]: 1 to 10 µM (≈ 0.509 to 5.09 µg/mL)
- EC50 [2, 3]: 10 to 100 nM
- Emax [2]: > 100%

SMILES: Cc1ccc(C(=O)N2C=C(C(=O)OC(C)C)c3[nH]c4ccccc4c3C(C)(C)C2)cc1F [Example 130, 1-methylethyl 3-[(3-fluoro-4-methylphenyl)carbonyl]-1,1-dimethyl-1,2,3,6-tetrahydroazepino[4,5-b]indole-5-carboxylate]
- solubility kinetic at 1.5 h [1]: 1 to 10 µM (≈ 0.435 to 4.35 µg/mL)
- EC50 [2, 3]: 10 to 100 nM
- Emax [2]: > 100%

SMILES: CC(C)OC(=O)C1=CN(C(=O)c2ccc(C(F)(F)F)cc2F)CC(C)(C)c2c1[nH]c1ccccc21 [Example 131, 1-methylethyl 3-{[2-fluoro-4-(trifluoromethyl)phenyl]car-bonyl}-1,1-dimethyl-1,2,3,6-tetrahydroazepino[4,5-b]indole-5-carboxylate]
- solubility kinetic at 1.5 h [1]: > 10 µM
- EC50 [2, 3]: 100 to 1000 nM
- Emax [2]: > 100%

SMILES: CC(C)OC(=O)C1=CN(C(=O)c2ccc(C(F)(F)F)c(Cl)c2F)CC(C)(C)c2c1[nH]c1ccccc21 [Example 132, 1-methylethyl 3-{[3-chloro-2-fluoro-4-(trifluoromethyl)phenyl]car-bonyl}-1,1-dimethyl-1,2,3,6-tetrahydroazepino[4,5-b]indole-5-carboxylate]
- solubility kinetic at 1.5 h [1]: 1 to 10 µM (≈ 0.523 to 5.23 µg/mL)
- EC50 [2, 3]: 100 to 1000 nM
- Emax [2]: > 100%

SMILES: CC(C)OC(=O)C1=CN(C(=O)c2cc(F)cc(C(F)(F)F)c2)CC(C)(C)c2c1[nH]c1ccccc21 [Example 134, 1-methylethyl 3-{[3-fluoro-5-(trifluoromethyl)phenyl]car-bonyl}-1,1-dimethyl-1,2,3,6-tetrahydroazepino[4,5-b]indole-5-carboxylate]
- solubility kinetic at 1.5 h [1]: 1 to 10 µM (≈ 0.488 to 4.88 µg/mL)
- EC50 [2, 3]: 10 to 100 nM
- Emax [2]: > 100%

SMILES: CC(C)OC(=O)C1=CN(C(=O)c2cc(C(F)(F)F)cc(C(F)(F)F)c2)CC(C)(C)c2c1[nH]c1ccccc21 [Example 135, 1-methylethyl 3-{[3,5-bis(trifluoromethyl)phenyl]carbonyl}-1,1-dimethyl-1,2,3,6-tetrahydroazepino[4,5-b]indole-5-carboxylate]
- solubility kinetic at 1.5 h [1]: 1 to 10 µM (≈ 0.538 to 5.38 µg/mL)
- EC50 [2, 3]: 10 to 100 nM
- Emax [2]: > 100%
